Like-named read-outs stand apart in the source and are kept apart here.
Tests used:
[1] = tested on: T. gondii tachyzoites (RH-YFP strain); assay: In vitro challenge assay for Toxoplasma tachyzoites (RH-YFP in HFF, fluorescence); format: cell-based, Toxoplasma gondii; conditions: Toxoplasma gondii; RH-YFP; read-out: Tachy IC50
Description: Human foreskin fibroblasts (HFF) were cultured on a flat, clear-bottomed, black 96-well plate to 90% to 100% confluence. IMDM (1×, [+] glutamine, [+] 25 mM HEPES, [+] Phenol red, 10% FBS [gibco, Denmark]) was removed from each well and replaced with IMDM-C (1×, [+] glutamine, [+] 25 mM HEPES, [−] Phenol red, 10% FBS)[Gibco, Denmark]). Type I RH parasites expressing Yellow Fluorescent Protein (RH-YFP) were lysed from host cells by double passage through a 27-gauge needle. Parasites were counted and diluted to 32,000/mL in IMDM-C. Fibroblast cultures were infected with 3200 tachyzoites of the Type I RH-YFP strain and returned to incubator at 37° C. for 1-2 hours to allow for infection. Diluted solutions of the compounds were made using IMDM-C, and 20 μl were added to each designated well, with triplicates for each condition. Controls included pyrimethamine/sulfadiazine (current standard of treatment), DMSO only, fibroblast only, and an untreated YFP gradient with 2 fold dilutions of the parasite. Cells were incubated at 37° C. for 72 hours. The plates were read using a fluorimeter (Synergy H4 Hybrid Reader, BioTek) To ascertain the amount of yellow fluorescent protein, in relative fluorescence units (RFU), as a measure of parasite burden after treatment. Compounds were not considered effective or pursued for further analysis if there were no signs of inhibition at 1 μM. Data was collected using Gen5 software and analyzed with Excel.
Protocol adapted from Fomovska, et. al. (18,19). Human foreskin fibroblasts (HFF) were cultured on a flat, clear-bottomed, black 96-well plate to 90% to 100% confluence. IMDM (1×, [+] glutamine, [+] 25 mM HEPES, [+] Phenol red, 10% FBS [gibco, Denmark]) was removed from each well and replaced with IMDM-C (1×, [+] glutamine, [+] 25 mM HEPES, [−] Phenol red, 10% FBS)[gibco, Denmark]). Type I RH parasites expressing Yellow Fluorescent Protein (RH-YFP) were lysed from host cells by double passage through a 27-gauge needle. Parasites were counted and diluted to 32,000/mL in IMDM-C. Fibroblast cultures were infected with 3200 tachyzoites of the Type I RH strain expressing Yellow Fluorescent Protein (RH-YFP) and returned to incubator at 37° C. for 1-2 hours to allow for infection (15). Various concentrations of the compounds were made using IMDM-C, and 20 μl were added to each designated well, with triplicates for each condition. Controls included pyrimethamine/sulfadiazine (current standard of treatment), 0.1% DMSO only, fibroblast only, and an untreated YFP gradient with 2 fold dilutions of the parasite. Cells were incubated at 37° C. for 72 hours. Plates were read using a fluorimeter (Synergy H4 Hybrid Reader, BioTek) to ascertain the amount of yellow fluorescent protein, in relative fluorescence units (RFU), as a measure of parasite burden after treatment. Data was collected using Gen5 software. IC50 was calculated by graphical analysis in Excel.
An initial screening assay of 10 μM, 1 μM, 100 nM, and 10 nM was performed. Compounds were not considered effective or pursued for further analysis if there were no signs of inhibition of tachyzoites at 1 μM. If compounds did appear to be effective at 1 μM, another experiment was conducted to assess effect at 1 μM, 500 nM, 250 nM, 125 nM, 62.5 nM, and 31.25 nM.
Protocol adapted from Fomovska, et. al. (Fomovska A, Huang Q, El Bissati K, Mui E J, Witola W H, Cheng G, et al. Novel N-Benzoyl-2-Hydroxybenzamide Disrupts Unique Parasite Secretory Pathway. Antimicrob Agents Chemother [Internet]. 2012 May [cited 2015 Jul. 8]; 56(5):2666-82; Fomovska A, Wood R D, Mui E, Dubey J P, Ferreira L R, Hickman M R, et al. Salicylanilide inhibitors of Toxoplasma gondii. J Med Chem. 2012 Oct. 11; 55(19):8375-91.). Human foreskin fibroblasts (HFF) were cultured on a flat, clear-bottomed, black 96-well plate to 90% to 100% confluence. […]

[2] = tested on: P. falciparum strains D6, TM91-C235, W2, C2B; assay: Malaria SYBR Green I-Based Fluorescence (MSF) Assay; format: cell-based, Plasmodium falciparum; conditions: Plasmodium falciparum
Description: Testing of P. falciparum: D6 is a drug sensitive strain from Sierra Leone, C235 is a multi-drug resistant strain from Thailand, W2 is a chloroquine resistant strain from Thailand, and C2B has resistance to a variety of drugs including atovaquone.
D6 is a drug sensitive strain from Sierra Leone, C235 is a multi-drug resistant strain from Thailand, W2 is a chloroquine resistant strain from Thailand, and C2B has resistance to a variety of drugs including atovaquone. These assays were performed as described.
(§1) Compound activity against P. falciparum, a causative agent of malaria, was tested using the Malaria SYBR Green I—Based Fluorescence (MSF) Assay. This; microtiter plate drug sensitivity assay uses the presence of malarial DNA as a measure of parasitic proliferation in the presence of antimalarial drugs or experimental compounds based on modifications of previously described methods by Plouffe et al (20) and Johnson et al. As the intercalation of SYBR Green I dye and its resulting fluorescence is relative to parasite growth, a test compound that inhibits the growth of the parasite will result in a lower fluorescence.
Selected compounds were examined for activity against four strains of P. falciparum: D6 (CDC/Sierra Leone), a drug-sensitive strain readily killed by chloroquine, TM91-C235, a multi-drug resistant strain resistant to chloroquine, W2, a chloroquine resistant strain from Thailand, and C2B has resistance to a variety of drugs including atovaquone.
D6 is a drug sensitive strain from Sierra Leone, C235 is a multi-drug resistant strain from Thailand, W2 is a chloroquine resistant strain from Thailand, and C2B has resistance to a variety of drugs including atovaquone. These assays were performed using standard protocols.
as §1, with “known in the art.” for “by Plouffe et al (20) and Johnson et al.”, “fluorescence. Selected compounds were examined for activity against four strains of P. falciparum: D6 (CDC/Sierra Leone), a drugsensitive strain readily killed by chloroquine, TM91-C235, a multi-drug resistant strain resistant to chloroquine, W2, a chloroquine resistant strain from Thailand, and C2B has resistance to a variety of drugs including atovaquone.” for “fluorescence.”

[3] = D6 strain, read-out: Pf D6 IC50
[4] = C2B strain, read-out: SYBR Green C2B IC50
[5] = D6 strain, read-out: SYBR Green D6 IC50
[6] = TM91C235 strain, read-out: SYBR Green C235 IC50
[7] = W2 strain, read-out: SYBR Green W2 IC50

SMILES	IC50 [1]	IC50 [2, 3]	IC50 [2, 4]	IC50 [2, 5]	IC50 [2, 6]	IC50 [2, 7]
Cc1cc2[nH]c(C)c(-c3ccc(Oc4ccc(OC(F)(F)F)cc4)cc3)c(=O)n2n1 [JAG006, 2,5-dimethyl-6-(4 (4-(trifluoromethoxy)phenoxy)phenyl) pyrazolo[1,5-a]pyrimidin-7(4H)-one]	> 1000 nM	290 nM				
CSc1nc2[nH]c(C)c(-c3ccc(Oc4ccc(OC(F)(F)F)cc4)cc3)c(=O)n2n1 [JAG013, 5-methyl-2-(methylthio)-6-(4-(4-(trifluoromethoxy)phenoxy)phenyl)-[1,2,4]triazolo[1,5-a]pyrimidin-7(4H)-one]	> 1000 nM	1310 nM	1390 nM	1310 nM	2600 nM	2350 nM
Cc1[nH]c2c(C#N)cnn2c(=O)c1-c1ccc(Oc2ccc(OC(F)(F)F)cc2)cc1 [JAG014, 5-methyl-7-oxo-6-(4-(4-(trifluoromethoxy)phenoxy)phenyl)-4,7-dihydropyrazolo[1,5-a]pyrimidine-3-carbonitrile]	> 1000 nM	710 nM	920 nM	710 nM	1350 nM	1270 nM
Cc1[nH]c2cc(-c3ccccc3)nn2c(=O)c1-c1ccc(Oc2ccc(OC(F)(F)F)cc2)cc1 [JAG015, 5-methyl-2-phenyl-6-(4-(4-(trifluoromethoxy)phenoxy)phenyl) pyrazolo[1,5-a]pyrimidin-7(4H)-one]	> 1000 nM	> 20000 nM	> 20000 nM	> 20000 nM	> 20000 nM	> 20000 nM
Cc1[nH]c2c(c(=O)c1-c1ccc(Oc3ccc(Cl)cc3)cc1)CCCC2 [JAG50, 3-(4-(4-chlorophenoxy)phenyl)-2-methyl-5,6,7,8-tetrahydroquinolin-4(1H)-one]	55 nM	46.6 nM				
CCC1CCc2c([nH]c(C)c(-c3ccc(Oc4ccc(OC(F)(F)F)cc4)cc3)c2=O)C1 (stereo not shown) [JAG121, 7-Ethyl-2-methyl-3(4-(4-trifluoromethoxyphenoxy)phenyl)-5,6,7,8-tetrahydroquinolin-4(1H)-one]	100 nM					
Cc1[nH]c2cnccc2c(=O)c1-c1ccc(Oc2ccc(OC(F)(F)F)cc2)cc1 [JAG129, 3(4-(4-trifluoromethoxyphenoxy)phenyl)-2-methyl-1,7-napthyrid-4(1H)-one]	100 nM					
Cc1[nH]c2c(c(=O)c1-c1ccc(Oc3ccc(OC(F)(F)F)cc3)cc1)CCC(C(F)(F)F)C2 (stereo not shown) [JAG162, 7-Trifluromethyl-2-methyl-3(4-(4-trifluoromethoxyphenoxy)phenyl)-5,6,7,8-tetrahydroquinolin-4(1H)-one]	500 nM					
Cc1[nH]c2ncnn2c(=O)c1-c1ccc(Oc2ccc(OC(F)(F)F)cc2)cc1 [MJM136, 5-methyl-6-(4-(4-(trifluoromethoxy)phenoxy)phenyl)-[1,2,4]triazolo[1,5-a]pyrimidin-7(4H)-one]	1000 to 10000 nM	200 nM	380 nM	200 nM	580 nM	550 nM

— patent publication US11414385B2, “Compounds and methods for treating, detecting, and identifying compounds to treat apicomplexan parasitic diseases” (The University of Chicago, priority 2015, dated 2022)
